What was measured:
Experiment in all cases: KINOMEscan competition binding
Settings in all cases: compound 10.0 µM
ANKK1 (human) = ANKK1 (human) (UniProt Q8NFD2)
CAMK4 (human) = CAMK4 (human) (UniProt Q16566)
CDC42BPG (human) = CDC42BPG (human) (UniProt Q6DT37)
CDK11B (human) = CDK11B (human) (UniProt P21127)
CSNK2A2 (human) = CSNK2A2 (human) (UniProt P19784)
DAPK3 (human) = DAPK3 (human) (UniProt O43293)
DCLK1 (human) = DCLK1 (human) (UniProt O15075)
DYRK1B (human) = DYRK1B (human) (UniProt Q9Y463)
EPHA1 (human) = EPHA1 (human) (UniProt P21709)
EPHA5 (human) = EPHA5 (human) (UniProt P54756)
EPHB1 (human) = EPHB1 (human) (UniProt P54762)
ERN1 (human) = ERN1 (human) (UniProt O75460)
GRK7 (human) = GRK7 (human) (UniProt Q8WTQ7)
HIPK4 (human) = HIPK4 (human) (UniProt Q8NE63)
Sequence of HIPK4 (human) (Q8NE63 whole entry, looked up): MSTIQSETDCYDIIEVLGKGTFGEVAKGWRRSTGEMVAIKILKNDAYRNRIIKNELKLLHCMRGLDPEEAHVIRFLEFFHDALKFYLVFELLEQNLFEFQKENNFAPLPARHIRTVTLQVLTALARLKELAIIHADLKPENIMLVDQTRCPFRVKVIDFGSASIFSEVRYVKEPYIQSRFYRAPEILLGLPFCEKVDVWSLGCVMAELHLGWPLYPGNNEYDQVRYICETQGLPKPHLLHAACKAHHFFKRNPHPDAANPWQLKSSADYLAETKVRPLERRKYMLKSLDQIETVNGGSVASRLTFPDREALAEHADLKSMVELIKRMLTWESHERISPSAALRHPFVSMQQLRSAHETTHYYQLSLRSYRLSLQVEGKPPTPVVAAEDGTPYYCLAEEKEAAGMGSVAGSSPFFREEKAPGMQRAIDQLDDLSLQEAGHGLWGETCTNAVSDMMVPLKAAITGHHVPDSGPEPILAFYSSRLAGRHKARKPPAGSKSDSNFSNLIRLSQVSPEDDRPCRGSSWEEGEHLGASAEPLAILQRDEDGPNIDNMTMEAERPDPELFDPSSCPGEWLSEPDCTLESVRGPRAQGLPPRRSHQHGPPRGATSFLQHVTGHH

IKBKB (human) = IKBKB (human) (UniProt O14920)
Sequence of IKBKB (human) (O14920 whole entry, looked up): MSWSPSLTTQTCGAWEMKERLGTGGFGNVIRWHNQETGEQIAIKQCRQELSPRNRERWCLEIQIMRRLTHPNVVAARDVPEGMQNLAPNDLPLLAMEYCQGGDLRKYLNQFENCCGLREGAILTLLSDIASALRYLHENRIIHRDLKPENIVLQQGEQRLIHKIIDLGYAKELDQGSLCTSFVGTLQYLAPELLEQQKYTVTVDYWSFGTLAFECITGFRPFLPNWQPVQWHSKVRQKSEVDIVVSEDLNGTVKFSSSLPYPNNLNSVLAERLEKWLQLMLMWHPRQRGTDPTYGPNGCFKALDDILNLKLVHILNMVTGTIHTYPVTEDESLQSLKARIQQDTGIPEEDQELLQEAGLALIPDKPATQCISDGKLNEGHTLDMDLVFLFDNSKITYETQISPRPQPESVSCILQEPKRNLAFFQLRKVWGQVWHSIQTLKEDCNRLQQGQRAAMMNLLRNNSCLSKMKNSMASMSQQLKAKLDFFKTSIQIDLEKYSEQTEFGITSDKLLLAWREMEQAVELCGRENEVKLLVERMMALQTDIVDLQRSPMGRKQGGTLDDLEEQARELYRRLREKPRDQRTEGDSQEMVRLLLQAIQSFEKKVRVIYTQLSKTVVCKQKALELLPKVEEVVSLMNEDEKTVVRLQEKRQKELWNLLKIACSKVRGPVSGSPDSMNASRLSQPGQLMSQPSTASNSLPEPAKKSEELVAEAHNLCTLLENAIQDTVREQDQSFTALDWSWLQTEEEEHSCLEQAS

IRAK3 (human) = IRAK3 (human) (UniProt Q9Y616)
KIT (human) = KIT (human) (UniProt P10721)
[1] = system: KIT (human), P10721 [L576P]
LRRK2 (human) = LRRK2 (human) (UniProt Q5S007)
MAP2K1 (human) = MAP2K1 (human) (UniProt Q02750)
MAP2K7 (human) = MAP2K7 (human) (UniProt O14733)
MAP3K3 (human) = MAP3K3 (human) (UniProt Q99759)
MAPK8 (human) = MAPK8 (human) (UniProt P45983)
MARK4 (human) = MARK4 (human) (UniProt Q96L34)
MATK (human) = MATK (human) (UniProt P42679)
MTOR (human) = MTOR (human) (UniProt P42345)
NUAK2 (human) = NUAK2 (human) (UniProt Q9H093)
PAK7 (human) = PAK7 (human) (UniProt Q9P286)
PI4KB (human) = PI4KB (human) (UniProt Q9UBF8)
PIK3CG (human) = PIK3CG (human) (UniProt P48736)
PIP4K2C (human) = PIP4K2C (human) (UniProt Q8TBX8)
Sequence of PIP4K2C (human) (Q8TBX8 whole entry, looked up): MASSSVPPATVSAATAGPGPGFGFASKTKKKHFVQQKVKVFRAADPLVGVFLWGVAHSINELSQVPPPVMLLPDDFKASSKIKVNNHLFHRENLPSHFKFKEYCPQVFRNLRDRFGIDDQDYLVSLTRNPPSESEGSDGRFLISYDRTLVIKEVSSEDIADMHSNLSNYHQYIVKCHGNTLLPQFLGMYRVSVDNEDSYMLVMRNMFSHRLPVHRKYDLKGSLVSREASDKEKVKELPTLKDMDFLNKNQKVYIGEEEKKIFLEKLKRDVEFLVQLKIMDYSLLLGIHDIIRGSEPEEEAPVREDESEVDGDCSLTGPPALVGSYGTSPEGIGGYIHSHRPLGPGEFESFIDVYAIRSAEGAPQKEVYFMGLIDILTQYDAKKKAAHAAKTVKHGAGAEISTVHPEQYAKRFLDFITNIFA

PLK2 (human) = PLK2 (human) (UniProt Q9NYY3)
PRKCI (human) = PRKCI (human) (UniProt P41743)
RIPK1 (human) = RIPK1 (human) (UniProt Q13546)
SBK1 (human) = SBK1 (human) (UniProt Q52WX2)
Sequence of SBK1 (human) (Q52WX2 whole entry, looked up): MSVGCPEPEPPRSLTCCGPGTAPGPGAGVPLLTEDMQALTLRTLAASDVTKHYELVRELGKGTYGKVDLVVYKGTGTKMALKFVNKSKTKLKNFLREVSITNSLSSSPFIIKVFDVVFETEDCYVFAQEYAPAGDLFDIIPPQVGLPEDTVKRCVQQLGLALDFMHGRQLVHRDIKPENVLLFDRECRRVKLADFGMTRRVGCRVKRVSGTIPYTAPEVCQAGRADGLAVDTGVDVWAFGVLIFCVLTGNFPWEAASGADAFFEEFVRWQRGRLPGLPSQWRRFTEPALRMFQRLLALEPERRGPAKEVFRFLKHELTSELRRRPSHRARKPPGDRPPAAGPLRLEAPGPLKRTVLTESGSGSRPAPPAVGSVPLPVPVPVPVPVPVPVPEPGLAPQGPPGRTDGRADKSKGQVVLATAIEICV

STK17B (human) = STK17B (human) (UniProt O94768)
SYK (human) = SYK (human) (UniProt P43405)
[2] = molecular target: TYK2 JH2 pseudokinase (human) (UniProt P29597)
ZAP70 (human) = ZAP70 (human) (UniProt P43403)

Sequence of CDC42BPG (human) (Q6DT37 whole entry, looked up): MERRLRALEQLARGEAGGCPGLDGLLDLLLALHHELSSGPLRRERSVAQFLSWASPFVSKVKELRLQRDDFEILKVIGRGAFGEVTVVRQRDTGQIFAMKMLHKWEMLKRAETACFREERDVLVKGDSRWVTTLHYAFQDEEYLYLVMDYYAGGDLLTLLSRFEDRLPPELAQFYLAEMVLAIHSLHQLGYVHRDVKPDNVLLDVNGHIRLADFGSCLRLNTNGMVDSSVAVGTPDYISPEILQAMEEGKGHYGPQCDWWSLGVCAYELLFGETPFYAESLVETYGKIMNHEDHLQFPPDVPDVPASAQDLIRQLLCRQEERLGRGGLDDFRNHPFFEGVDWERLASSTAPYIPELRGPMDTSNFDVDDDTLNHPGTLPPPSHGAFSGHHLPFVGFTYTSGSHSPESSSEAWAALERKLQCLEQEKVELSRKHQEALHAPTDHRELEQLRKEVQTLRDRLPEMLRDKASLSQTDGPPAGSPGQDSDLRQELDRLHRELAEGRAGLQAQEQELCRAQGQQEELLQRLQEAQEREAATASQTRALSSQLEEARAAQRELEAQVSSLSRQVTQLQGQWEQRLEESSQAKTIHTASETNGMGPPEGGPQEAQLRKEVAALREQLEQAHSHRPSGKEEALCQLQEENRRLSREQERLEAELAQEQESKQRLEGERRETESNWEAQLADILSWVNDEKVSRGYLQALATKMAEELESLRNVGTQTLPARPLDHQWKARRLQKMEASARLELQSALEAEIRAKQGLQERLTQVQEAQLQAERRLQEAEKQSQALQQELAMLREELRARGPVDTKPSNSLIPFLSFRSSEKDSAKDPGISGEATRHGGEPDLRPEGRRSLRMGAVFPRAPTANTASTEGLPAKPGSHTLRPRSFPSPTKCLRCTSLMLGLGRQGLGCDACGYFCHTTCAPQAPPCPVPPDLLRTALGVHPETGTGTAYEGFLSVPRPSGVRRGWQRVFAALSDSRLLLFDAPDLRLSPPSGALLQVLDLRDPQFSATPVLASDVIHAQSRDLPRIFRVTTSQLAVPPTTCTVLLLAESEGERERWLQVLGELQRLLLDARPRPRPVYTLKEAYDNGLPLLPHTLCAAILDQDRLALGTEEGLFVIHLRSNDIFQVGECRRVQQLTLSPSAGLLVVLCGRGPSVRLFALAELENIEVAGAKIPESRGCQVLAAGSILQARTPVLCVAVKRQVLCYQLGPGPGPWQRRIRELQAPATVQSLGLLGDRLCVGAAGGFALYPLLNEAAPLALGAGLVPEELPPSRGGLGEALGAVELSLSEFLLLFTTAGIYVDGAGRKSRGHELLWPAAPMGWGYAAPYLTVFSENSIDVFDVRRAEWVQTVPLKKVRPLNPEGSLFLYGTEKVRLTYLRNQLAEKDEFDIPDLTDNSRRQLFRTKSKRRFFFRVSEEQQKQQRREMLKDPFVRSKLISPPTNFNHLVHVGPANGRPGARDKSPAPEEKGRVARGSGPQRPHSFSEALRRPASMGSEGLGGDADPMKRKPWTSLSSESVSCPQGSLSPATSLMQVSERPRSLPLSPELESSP
Sequence of DCLK1 (human) (O15075 whole entry, looked up): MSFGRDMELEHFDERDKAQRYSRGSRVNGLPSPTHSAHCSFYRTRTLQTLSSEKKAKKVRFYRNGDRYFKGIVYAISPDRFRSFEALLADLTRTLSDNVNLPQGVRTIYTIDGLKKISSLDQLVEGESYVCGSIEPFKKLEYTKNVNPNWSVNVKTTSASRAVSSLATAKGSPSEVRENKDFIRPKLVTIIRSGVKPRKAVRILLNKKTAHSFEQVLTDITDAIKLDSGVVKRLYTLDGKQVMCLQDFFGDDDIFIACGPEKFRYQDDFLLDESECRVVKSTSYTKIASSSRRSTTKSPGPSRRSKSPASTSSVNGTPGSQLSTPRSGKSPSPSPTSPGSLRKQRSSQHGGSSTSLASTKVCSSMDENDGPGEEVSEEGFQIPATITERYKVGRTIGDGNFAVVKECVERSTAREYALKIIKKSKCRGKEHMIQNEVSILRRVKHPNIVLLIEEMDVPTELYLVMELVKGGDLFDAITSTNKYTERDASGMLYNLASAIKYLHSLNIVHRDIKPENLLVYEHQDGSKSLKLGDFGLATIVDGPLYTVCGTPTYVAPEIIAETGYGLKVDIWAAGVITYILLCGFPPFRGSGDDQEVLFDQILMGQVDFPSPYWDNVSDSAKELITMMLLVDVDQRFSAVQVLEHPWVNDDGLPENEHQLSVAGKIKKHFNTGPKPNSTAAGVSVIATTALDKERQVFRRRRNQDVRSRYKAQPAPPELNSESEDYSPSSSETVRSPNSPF
Sequence of CAMK4 (human) (Q16566 whole entry, looked up): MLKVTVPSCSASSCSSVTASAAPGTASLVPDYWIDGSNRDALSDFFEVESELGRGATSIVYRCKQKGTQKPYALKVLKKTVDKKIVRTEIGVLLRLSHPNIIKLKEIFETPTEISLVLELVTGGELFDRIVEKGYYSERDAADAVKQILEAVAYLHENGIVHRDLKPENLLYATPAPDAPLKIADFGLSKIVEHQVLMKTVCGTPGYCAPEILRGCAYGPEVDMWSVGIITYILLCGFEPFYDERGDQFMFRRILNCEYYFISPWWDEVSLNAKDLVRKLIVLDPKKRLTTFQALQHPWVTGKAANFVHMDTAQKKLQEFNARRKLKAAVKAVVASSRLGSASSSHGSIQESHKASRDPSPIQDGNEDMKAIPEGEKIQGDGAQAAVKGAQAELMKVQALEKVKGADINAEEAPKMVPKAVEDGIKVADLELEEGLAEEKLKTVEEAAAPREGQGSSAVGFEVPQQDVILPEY

Row | Structure (SMILES) | kinase still bound, per cent of control (ANKK1 (human)) [%] | kinase still bound, per cent of control (CAMK4 (human)) [%] | kinase still bound, per cent of control (CDC42BPG (human)) [%] | kinase still bound, per cent of control (CDK11B (human)) [%] | kinase still bound, per cent of control (CSNK2A2 (human)) [%] | kinase still bound, per cent of control (DAPK3 (human)) [%] | kinase still bound, per cent of control (DCLK1 (human)) [%] | kinase still bound, per cent of control (DYRK1B (human)) [%] | kinase still bound, per cent of control (EPHA1 (human)) [%] | kinase still bound, per cent of control (EPHA5 (human)) [%] | kinase still bound, per cent of control (EPHB1 (human)) [%] | kinase still bound, per cent of control (ERN1 (human)) [%] | kinase still bound, per cent of control (GRK7 (human)) [%] | kinase still bound, per cent of control (HIPK4 (human)) [%] | kinase still bound, per cent of control (IKBKB (human)) [%] | kinase still bound, per cent of control (IRAK3 (human)) [%] | kinase still bound, per cent of control (KIT (human)) [%] | kinase still bound, per cent of control [1] [%] | kinase still bound, per cent of control (LRRK2 (human)) [%] | kinase still bound, per cent of control (MAP2K1 (human)) [%] | further results
1 | COc1cc2ncnc(-n3nc(-c4ccccn4)nc3N)c2cc1OC | 12 | 100 | 96 | 93 | 5.2 | 4.6 | 36 | 2 | 14 | 19 | 32 | 46 | 11 | 6 | 45 | 12 | 10 | 4.5 | 41 | 64 | kinase still bound, per cent of control (MAP2K7 (human)): 77%; kinase still bound, per cent of control (MAP3K3 (human)): 48%; kinase still bound, per cent of control (MAPK8 (human)): 12%; kinase still bound, per cent of control (MARK4 (human)): 75%; kinase still bound, per cent of control (MATK (human)): 57%; kinase still bound, per cent of control (MTOR (human)): 5%; kinase still bound, per cent of control (NUAK2 (human)): 37%; kinase still bound, per cent of control (PAK7 (human)): 63%; kinase still bound, per cent of control (PI4KB (human)): 9.8%; kinase still bound, per cent of control (PIK3CG (human)): 3.1%; kinase still bound, per cent of control (PIP4K2C (human)): 1.1%; kinase still bound, per cent of control (PLK2 (human)): 13%; kinase still bound, per cent of control (PRKCI (human)): 55%; kinase still bound, per cent of control (RIPK1 (human)): 86%; kinase still bound, per cent of control (SBK1 (human)): 100%; kinase still bound, per cent of control (STK17B (human)): 9.4%; kinase still bound, per cent of control (SYK (human)): 24%; kinase still bound, per cent of control [2]: 0%; kinase still bound, per cent of control (ZAP70 (human)): 32%
2 | O=C(Nc1cccc(Nc2ncc(Br)c(NCCc3cnc[nH]3)n2)c1)N1CCCC1 | 4.3 | 100 | 49 | 66 | 0 | 4 | 35 | 35 | 35 | 92 | 85 | 34 | 34 | 2 | 8.4 | 0.7 | 0.15 | 0 | 11 | 0.15 | kinase still bound, per cent of control (MAP2K7 (human)): 60%; kinase still bound, per cent of control (MAP3K3 (human)): 0.3%; kinase still bound, per cent of control (MAPK8 (human)): 0.2%; kinase still bound, per cent of control (MARK4 (human)): 0%; kinase still bound, per cent of control (MATK (human)): 40%; kinase still bound, per cent of control (MTOR (human)): 87%; kinase still bound, per cent of control (NUAK2 (human)): 3.8%; kinase still bound, per cent of control (PAK7 (human)): 1.6%; kinase still bound, per cent of control (PI4KB (human)): 35%; kinase still bound, per cent of control (PIK3CG (human)): 58%; kinase still bound, per cent of control (PIP4K2C (human)): 2%; kinase still bound, per cent of control (PLK2 (human)): 11%; kinase still bound, per cent of control (PRKCI (human)): 45%; kinase still bound, per cent of control (RIPK1 (human)): 18%; kinase still bound, per cent of control (SBK1 (human)): 3.6%; kinase still bound, per cent of control (STK17B (human)): 2.4%; kinase still bound, per cent of control (SYK (human)): 0.95%; kinase still bound, per cent of control [2]: 0%; kinase still bound, per cent of control (ZAP70 (human)): 7.1%
3 | CN(C)C/C=C/C(=O)Nc1ccc(C(=O)Nc2cccc(Nc3nccc(-c4cccnc4)n3)c2)cc1 | 8.1 | 100 | 76 | 91 | 5.2 | 62 | 98 | 24 | 76 | 97 | 100 | 70 | 98 | 8.6 | 65 | 6.8 | 3.8 | 0.35 | 100 | 92 | kinase still bound, per cent of control (MAP2K7 (human)): 80%; kinase still bound, per cent of control (MAP3K3 (human)): 93%; kinase still bound, per cent of control (MAPK8 (human)): 1.2%; kinase still bound, per cent of control (MARK4 (human)): 26%; kinase still bound, per cent of control (MATK (human)): 91%; kinase still bound, per cent of control (MTOR (human)): 80%; kinase still bound, per cent of control (NUAK2 (human)): 30%; kinase still bound, per cent of control (PAK7 (human)): 52%; kinase still bound, per cent of control (PI4KB (human)): 51%; kinase still bound, per cent of control (PIK3CG (human)): 13%; kinase still bound, per cent of control (PIP4K2C (human)): 0.8%; kinase still bound, per cent of control (PLK2 (human)): 81%; kinase still bound, per cent of control (PRKCI (human)): 100%; kinase still bound, per cent of control (RIPK1 (human)): 34%; kinase still bound, per cent of control (SBK1 (human)): 100%; kinase still bound, per cent of control (STK17B (human)): 19%; kinase still bound, per cent of control (SYK (human)): 23%; kinase still bound, per cent of control [2]: 0.2%; kinase still bound, per cent of control (ZAP70 (human)): 85%

Reference: the kinase profiling compilation of Christmann-Franck et al. (2016)
